Experiments:
p110α = p110α (Homo sapiens, UniProt P42336); assay: class I PI3K HTRF assay, p110α; format: biochemical
Method: (§1) DS7423 inhibits PI3K/mTOR activity likely binding to the ATP binding cleft of these enzymes and was tested against class I PI3K and other kinases using an HTRF assay format and direct measurement of substrate phosphorylation, respectively.

p110γ = p110γ (Homo sapiens, UniProt P48736); assay: class I PI3K HTRF assay, p110γ; format: biochemical
Method: as §1

p110β = p110β (Homo sapiens, UniProt P42338); assay: class I PI3K HTRF assay, p110β; format: biochemical
Chain of p110β (P42338 whole entry): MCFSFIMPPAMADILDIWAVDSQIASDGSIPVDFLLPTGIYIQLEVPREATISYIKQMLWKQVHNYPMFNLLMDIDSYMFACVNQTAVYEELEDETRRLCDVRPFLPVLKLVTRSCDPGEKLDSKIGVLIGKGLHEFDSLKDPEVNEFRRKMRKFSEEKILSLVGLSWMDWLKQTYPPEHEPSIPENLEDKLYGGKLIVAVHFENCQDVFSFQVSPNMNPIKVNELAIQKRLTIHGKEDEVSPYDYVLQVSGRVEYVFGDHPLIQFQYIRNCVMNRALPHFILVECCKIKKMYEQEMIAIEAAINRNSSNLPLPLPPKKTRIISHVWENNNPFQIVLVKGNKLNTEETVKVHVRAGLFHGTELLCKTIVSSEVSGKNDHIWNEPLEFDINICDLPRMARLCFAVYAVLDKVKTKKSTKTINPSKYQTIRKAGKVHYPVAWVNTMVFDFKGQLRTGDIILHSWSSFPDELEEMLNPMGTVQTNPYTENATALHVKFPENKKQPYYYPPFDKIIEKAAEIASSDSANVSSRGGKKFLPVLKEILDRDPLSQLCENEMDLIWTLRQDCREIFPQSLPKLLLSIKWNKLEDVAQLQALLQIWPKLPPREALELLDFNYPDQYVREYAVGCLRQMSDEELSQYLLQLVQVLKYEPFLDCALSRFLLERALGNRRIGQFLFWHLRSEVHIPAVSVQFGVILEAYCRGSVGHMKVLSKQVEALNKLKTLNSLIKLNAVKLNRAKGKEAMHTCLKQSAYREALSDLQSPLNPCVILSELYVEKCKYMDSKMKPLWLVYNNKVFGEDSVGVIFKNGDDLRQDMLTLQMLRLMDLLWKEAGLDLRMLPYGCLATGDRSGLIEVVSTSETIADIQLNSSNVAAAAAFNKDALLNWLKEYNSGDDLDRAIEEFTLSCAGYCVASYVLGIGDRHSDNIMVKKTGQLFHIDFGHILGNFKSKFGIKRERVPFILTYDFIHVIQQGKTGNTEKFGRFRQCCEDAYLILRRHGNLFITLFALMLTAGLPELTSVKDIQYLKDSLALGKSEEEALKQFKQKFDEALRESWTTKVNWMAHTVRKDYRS
Chain of p110β (P27986 whole entry partner): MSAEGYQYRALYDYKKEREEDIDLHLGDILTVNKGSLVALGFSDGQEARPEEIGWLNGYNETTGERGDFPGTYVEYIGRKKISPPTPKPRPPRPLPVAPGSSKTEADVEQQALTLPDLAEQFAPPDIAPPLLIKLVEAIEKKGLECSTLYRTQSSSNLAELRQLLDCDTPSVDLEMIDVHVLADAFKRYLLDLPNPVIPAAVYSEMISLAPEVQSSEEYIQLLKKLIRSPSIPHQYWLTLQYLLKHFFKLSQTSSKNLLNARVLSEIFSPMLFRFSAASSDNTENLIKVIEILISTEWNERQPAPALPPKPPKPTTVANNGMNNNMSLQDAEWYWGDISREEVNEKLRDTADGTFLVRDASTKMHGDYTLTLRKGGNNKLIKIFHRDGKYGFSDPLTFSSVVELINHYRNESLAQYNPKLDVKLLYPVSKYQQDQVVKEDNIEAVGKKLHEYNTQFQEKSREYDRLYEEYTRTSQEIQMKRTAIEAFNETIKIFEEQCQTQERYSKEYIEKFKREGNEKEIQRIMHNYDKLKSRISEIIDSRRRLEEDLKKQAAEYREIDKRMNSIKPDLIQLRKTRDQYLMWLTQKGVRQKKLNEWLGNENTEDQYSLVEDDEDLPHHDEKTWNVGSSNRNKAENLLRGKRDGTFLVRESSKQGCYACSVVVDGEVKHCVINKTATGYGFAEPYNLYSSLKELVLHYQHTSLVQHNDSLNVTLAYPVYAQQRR
Method: as §1

U87 glioma cells = assay: U87 orthotopic intracranial xenograft efficacy; format: in vivo
From the text: (§2) Figure 4 DS7423 suppressed tumor growth and prolonged survival in an orthotopic mouse xenograft model U87 glioma cells U87 and GSC11 GICs were used to generate orthotopic xenografts in mouse brains. Tumor-bearing mice received either vehicle or DS7423 at the indicated dose/schedules. Two mice were killed at the indicated time points (2 weeks and 4 weeks) after DS treatment. A. and B. Kaplan–Meier survival plots of tumor-bearing mice in vehicle or DS7423 treatment groups (n = 10). The log-rank method was used to test for a difference between groups. […] Bar, 100 μm.
(§3) 6 to 8-week-old male nude mice were obtained from the MD Anderson breeding facility and used in accordance with the Animal Care and Use Guidelines of MD Anderson Cancer Center. In this study, 5 × 10^5 U87 (PTEN mutant) cells in DMEM/F12 serum-free media (5 μL) and GSC11 (PIK3CA mutant and PTEN mutant) were implanted intracranially into each mouse using a guide-screw system, as described previously. Four days after injection of the tumor cells, mice were randomized into 2 groups (10 animals per group). Mice in-group 1 was given 6 mg/kg DS7423 via oral gavage, and mice in-group 2 were given the vehicle (0.5% methyl cellulose) used for administration of DS (control). […] Mice were monitored daily and euthanized when they became moribund. […]

GSC11 GICs = assay: GSC11 orthotopic intracranial xenograft efficacy; format: in vivo, nude mice; conditions: GSC11 tumor-bearing mice, 6 mg/kg oral; control 47 days; P=0.014
From the text: as §2, §3

LN229 = LN229 intracranial model efficacy; format: in vivo; conditions: LN229 tumor-bearing mice, PTEN wild type
Method: We studied the efficacy of DS in 2 intracranial tumor models; the U87 glioma cell line and the GSC11 glioma initiating cell line are both PTEN mutant and GSC-11 is PIK3CA mutant cells. The median survival time of the U87 tumor-bearing control mice (i.e., those injected with methylcellulose only) was 30 days, whereas the median survival time of the U87 tumor-bearing mice orally treated with 6 mg/kg of DS was 46 days (Figure 4A; P=0.025). The median survival of the GSC11 tumor-bearing mice orally treated with 6 mg/kg of DS was 61 days (Figure 4B; P=0.014) compared with 47 days for the control-treated mice. The in vivo therapeutic efficacy of DS was assessed by plotting the Kaplan-Meier survival curves of the animals, and group data were compared using the log-rank test (Figure 4A and 4B). […] We also studied LN229 a PTEN wild type cell line to study the efficacy of DS in intracranial model.

U87 GFP-LC3 cells = assay: GFP-LC3 puncta detection (autophagy); format: cell-based, human; conditions: TMZ 125 μM, DS 100 nM, control 2%
From the text: To investigate the effects of DS, TMZ, or the TMZ/DS combination on autophagy in glioma cells, we transfected cells with GFP-LC3 constructs in addition to various drug treatment and control treatment regimens and examined the accumulation of punctate GFP-LC3 structures using fluorescence microscopy. During autophagy, LC3-II relocalizes to the autophagosomal membranes. Thus, the accumulation of GFP-LC3 puncta provides an effective way to detect autophagosomes. In control cells, GFP-LC3 punctate structures were not detected, but large numbers of GFP-LC3 punctate structures were found in cells treated with DS or TMZ (Figure 5C). […] Strikingly, the combination of DS and TMZ further induced autophagy in up to 50% of U87 cells.
U87 GFP-LC3 cells were analyzed by using a fluorescence microscope, and the percentage of cells displaying GFP-LC3-positive puncta was quantified by counting 5 random fields in 3 independent experiments.

Akt phosphorylation = assay: Western blot of PI3K signaling proteins in glioma cells; format: cell-based, human; conditions: 200 nM DS
Method: The levels of PI3K/mTOR signaling proteins, including pAkt, pS6 and P4EBP1 decreased in a dose- and time-dependent manner in all tested glioma cells (Figure 2A and 2B) as well as in the glioma tumor-initiating cell line GSC11 (Figure 2A and 2B). DS suppression of pAkt caused subsequent effects on Akt effectors such as 4EBP1 and S6 at 200-nM concentrations, and the maximum effects on Akt phosphorylation were observed 8 hours after 200 nM DS treatment.
Figure 2 DS7423 suppresses the PI3K signaling pathway in a dose- or time-dependent manner A. and B. Western blotting was performed to analyze the cellular protein levels of PI3K signaling proteins in U87 and LN229 glioma cells and GSC11 GICs. Cells were treated with the indicated doses of DS7423 for the indicated time intervals. DS7423 inhibited phosphorylation of the PI3K signaling components pAKT, pS6, and p4EBP1 in a time-dependent manner. D. Cells treated with the indicated doses of DS7423 for 24 hours. DS7423 inhibited phosphorylation of the PI3K signaling components pAKT, pS6, and p4EBP1 in a dose-dependent manner.
Cells were incubated with DS and then harvested and extracts were prepared for immunoblotting analysis. […]

Chain of p110α (P42336 whole entry): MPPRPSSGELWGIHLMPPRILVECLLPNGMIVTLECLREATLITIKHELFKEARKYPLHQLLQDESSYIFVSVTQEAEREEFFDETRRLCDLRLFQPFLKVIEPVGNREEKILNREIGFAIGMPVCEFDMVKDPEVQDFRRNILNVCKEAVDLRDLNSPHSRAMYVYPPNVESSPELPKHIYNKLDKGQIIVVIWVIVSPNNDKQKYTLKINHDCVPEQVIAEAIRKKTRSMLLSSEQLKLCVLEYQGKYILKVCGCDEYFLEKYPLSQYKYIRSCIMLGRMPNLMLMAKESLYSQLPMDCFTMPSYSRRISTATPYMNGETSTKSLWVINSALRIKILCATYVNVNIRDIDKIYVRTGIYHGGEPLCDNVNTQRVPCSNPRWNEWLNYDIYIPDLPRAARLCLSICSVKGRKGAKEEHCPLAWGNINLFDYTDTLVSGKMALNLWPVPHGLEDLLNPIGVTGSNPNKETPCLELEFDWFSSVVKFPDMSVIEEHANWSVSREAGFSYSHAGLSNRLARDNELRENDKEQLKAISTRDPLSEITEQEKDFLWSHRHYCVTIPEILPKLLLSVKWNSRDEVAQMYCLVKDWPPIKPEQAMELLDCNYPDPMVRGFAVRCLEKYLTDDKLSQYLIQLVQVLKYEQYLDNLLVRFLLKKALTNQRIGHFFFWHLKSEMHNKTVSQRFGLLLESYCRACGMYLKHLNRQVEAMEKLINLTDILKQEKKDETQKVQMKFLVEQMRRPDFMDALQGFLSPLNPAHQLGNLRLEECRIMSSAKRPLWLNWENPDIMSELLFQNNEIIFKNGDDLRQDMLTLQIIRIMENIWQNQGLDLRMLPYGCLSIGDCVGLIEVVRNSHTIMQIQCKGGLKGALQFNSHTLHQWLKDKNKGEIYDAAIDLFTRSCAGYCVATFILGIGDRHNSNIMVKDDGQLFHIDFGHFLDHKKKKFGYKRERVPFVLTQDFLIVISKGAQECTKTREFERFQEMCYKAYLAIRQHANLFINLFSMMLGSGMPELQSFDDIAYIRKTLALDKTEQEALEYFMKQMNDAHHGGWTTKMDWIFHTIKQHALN
Chain of p110α (P27986 whole entry partner): as the sequence (P27986 whole entry partner) above
Chain of p110γ (P48736 whole entry): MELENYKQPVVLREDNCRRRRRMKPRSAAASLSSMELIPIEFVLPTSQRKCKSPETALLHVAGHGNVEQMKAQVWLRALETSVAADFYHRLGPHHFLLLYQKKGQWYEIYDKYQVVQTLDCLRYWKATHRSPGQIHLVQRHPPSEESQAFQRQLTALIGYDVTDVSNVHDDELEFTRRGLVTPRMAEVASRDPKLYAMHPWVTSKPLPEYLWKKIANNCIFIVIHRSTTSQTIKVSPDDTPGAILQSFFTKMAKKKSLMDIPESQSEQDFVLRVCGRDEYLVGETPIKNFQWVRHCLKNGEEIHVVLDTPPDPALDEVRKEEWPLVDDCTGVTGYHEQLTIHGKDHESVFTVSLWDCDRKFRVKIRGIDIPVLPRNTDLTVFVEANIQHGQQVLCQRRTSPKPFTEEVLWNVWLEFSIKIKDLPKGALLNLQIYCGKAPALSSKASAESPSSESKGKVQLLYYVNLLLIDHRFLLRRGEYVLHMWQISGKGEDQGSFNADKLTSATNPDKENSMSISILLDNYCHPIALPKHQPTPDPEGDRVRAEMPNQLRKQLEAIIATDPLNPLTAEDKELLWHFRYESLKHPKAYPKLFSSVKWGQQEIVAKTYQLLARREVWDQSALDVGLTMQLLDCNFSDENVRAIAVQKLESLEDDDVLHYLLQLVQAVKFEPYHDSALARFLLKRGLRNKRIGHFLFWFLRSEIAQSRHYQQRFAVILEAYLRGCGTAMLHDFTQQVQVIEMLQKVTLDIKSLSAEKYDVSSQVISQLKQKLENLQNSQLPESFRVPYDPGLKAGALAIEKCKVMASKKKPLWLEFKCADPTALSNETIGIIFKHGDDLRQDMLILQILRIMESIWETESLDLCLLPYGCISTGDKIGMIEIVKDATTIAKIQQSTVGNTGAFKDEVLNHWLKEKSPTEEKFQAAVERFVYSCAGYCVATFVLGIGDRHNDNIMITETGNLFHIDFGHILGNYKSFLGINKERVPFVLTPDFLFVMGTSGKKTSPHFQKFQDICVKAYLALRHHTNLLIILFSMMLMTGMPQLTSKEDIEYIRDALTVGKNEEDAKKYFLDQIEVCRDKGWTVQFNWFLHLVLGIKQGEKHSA

In the case of `CC(=O)N1CCN(c2nc3c(N4CCOCC4)nc(-c4cnc(N)nc4)nc3n2CC(F)(F)F)C[C@H]1C` [DS, 1-{(2R)-4-[2-(2-Aminopyrimidin-5-yl)-6-(morpholin-4-yl)-9-(2,2,2-trifluoroethyl)-9H-purin-8-yl]-2-methylpiperazin-1-yl}ethan-1-one], the IC50 (p110α) is reported as 17 nM, the IC50 (p110γ) is reported as 249 nM and the IC50 (p110β) is reported as 1140 nM. The median survival time (U87 glioma cells; U87 tumor-bearing mice, 6 mg/kg oral, control 30 days, P=0.025) was 46 days, the “toxic effects in mice with intracranial xenograft tumors” value (U87 glioma cells; treated mice) was “without causing any obvious toxic effects” and the median survival (GSC11 GICs) was 61 days. For the same compound, the “effect on median survival” value (LN229) was “no effect on median survival”, the “cells with induced autophagy (GFP-LC3 puncta)” value (U87 GFP-LC3 cells) was 30% and the “time of maximum effects on Akt phosphorylation” value (Akt phosphorylation) was 8 h.

— PMC5400620, “Preclinical therapeutic efficacy of a novel blood-brain barrier-penetrant dual PI3K/mTOR inhibitor with preferential response in PI3K/PTEN mutant glioma” (Oncotarget, 2017)
